Measurements published in patent US6242437A, “Cephem derivatives” (Meiji Seika Kaisha, Ltd., priority 1996, dated 2001).
≈ marks a conversion by molar mass, not a printed value. Structures can show the parent of a compound that is named as a salt.

Legend:
Experiment in all cases: Minimum inhibitory concentration, two-fold dilution method
Type in all cases: cell-based
C. freundii GN346/16 = details: Citrobacter freundii, 10^6 CFU/ml, 35° C., 18 to 20 hr
Protocol: (§1) The antibacterial activity of the compounds according to the present invention was assayed in terms of the minimum inhibitory concentration, for various bacteria, measured by the conventional two-fold dilution method described in, for example, CHEMOTHERAPY, Vol. 29, No. 1, 76-79 (1981). The measurement was carried out in the following manner: 10^6 CFU/ml of a bacterium to be tested was inoculated on a Medium N for disc susceptibility test (manufactured by Nissui Pharmaceutical Co., Ltd.) and cultivated at 35° C. for 18 to 20 hr.
(§2) The test compounds were the compounds prepared in Examples 4 and 5, Cefozopran (CZOP, control 1), Cefpirome (CPR, control 2), the compound prepared in Example 66 (control 3) described in WO 95/07912.

E. cloacae G-0008 = details: Enterobacter cloacae, G0008, 10^6 CFU/ml, 35° C., 18 to 20 hr
Protocol: as §1, §2

E. coli NIHJ JC-2 = details: Escherichia coli, NIHJJC2, 10^6 CFU/ml, 35° C., 18 to 20 hr
Protocol: as §1, §2

K. pneumoniae PCI602 = details: Klebsiella pneumoniae, 10^6 CFU/ml, 35° C., 18 to 20 hr
Protocol: as §1, §2

M. morganii 1510/S-1 = details: Morganella morganii, 1510/S1, 10^6 CFU/ml, 35° C., 18 to 20 hr
Protocol: as §1, §2

P. aeruginosa E-2 = details: Pseudomonas aeruginosa, E2, 10^6 CFU/ml, 35° C., 18 to 20 hr
Protocol: as §1, §2

P. aeruginosa GN10362 = details: Pseudomonas aeruginosa, 10^6 CFU/ml, 35° C., 18 to 20 hr
Protocol: as §1, §2

P. aeruginosa PA01 = details: Pseudomonas aeruginosa; P. aeruginosa PA01, Imipenem- and Aztreonam-resistant; 10^6 CFU/ml, 35° C., 18 to 20 hr
Protocol: as §1, §2

S. aureus 126 = details: Staphylococcus aureus; S. aureus 126, methicilline-resistant (MRSA); 10^6 CFU/ml, 35° C., 18 to 20 hr
Protocol: as §1, §2

S. aureus 209P JC-1 = details: Staphylococcus aureus, 10^6 CFU/ml, 35° C., 18 to 20 hr
Protocol: as §1, §2

S. epidermidis ATCC14990 = details: Staphylococcus epidermidis, 10^6 CFU/ml, 35° C., 18 to 20 hr
Protocol: as §1, §2

S. marcescens No. 1 = details: Serratia marcescens, 10^6 CFU/ml, 35° C., 18 to 20 hr
Protocol: as §1, §2

S. pneumoniae IP692 = details: Streptococcus pneumoniae, 10^6 CFU/ml, 35° C., 18 to 20 hr
Protocol: as §1, §2

S. pneumoniae PRC9 = details: Streptococcus pneumoniae; S. pneumoniae PRC9, penicillin-resistant (PRSP); 10^6 CFU/ml, 35° C., 18 to 20 hr
Protocol: as §1, §2

S. pneumoniae JPR20 = details: Streptococcus pneumoniae; S. pneumoniae JPR20, penicillin-resistant (PRSP); 10^6 CFU/ml, 35° C., 18 to 20 hr
Protocol: as §1, §2

S. pneumoniae JPR9 = details: Streptococcus pneumoniae; S. pneumoniae JPR9, penicillin-resistant (PRSP); 10^6 CFU/ml, 35° C., 18 to 20 hr
Protocol: as §1, §2

Compound	MIC (C. freundii GN346/16) [µg/mL]	MIC (E. cloacae G-0008) [µg/mL]	MIC (E. coli NIHJ JC-2) [µg/mL]	MIC (K. pneumoniae PCI602) [µg/mL]	MIC (M. morganii 1510/S-1) [µg/mL]	MIC (P. aeruginosa E-2) [µg/mL]	MIC (P. aeruginosa GN10362) [µg/mL]	MIC (P. aeruginosa PA01) [µg/mL]	MIC (S. aureus 126) [µg/mL]	MIC (S. aureus 209P JC-1) [µg/mL]	MIC (S. epidermidis ATCC14990) [µg/mL]	MIC (S. marcescens No. 1) [µg/mL]	MIC (S. pneumoniae IP692) [µg/mL]	MIC (S. pneumoniae PRC9) [µg/mL]	MIC (S. pneumoniae JPR20) [µg/mL]	MIC (S. pneumoniae JPR9) [µg/mL]
CO/N=C(\C(=O)N[C@@H]1C(=O)N2C(C(=O)[O-])=C(C[n+]3cccc4c3CCC4)CS[C@H]12)c1csc(N)n1 [Control 2, Cefpirome, reference compound]	0.05 (≈ 0.0972 µM)	0.05 (≈ 0.0972 µM)	0.05 (≈ 0.0972 µM)	0.05 (≈ 0.0972 µM)	≤ 0.025	3.13 (≈ 6.08 µM)	3.13 (≈ 6.08 µM)	25 (≈ 48.6 µM)	50 (≈ 97.2 µM)	0.2 (≈ 0.389 µM)	0.39 (≈ 0.758 µM)	≤ 0.025	≤ 0.025	0.78 (≈ 1.52 µM)	–	–
Nc1nc(/C(=N/OCF)C(=O)N[C@@H]2C(=O)N3C(C(=O)[O-])=C(C[n+]4cc5sccn5c4CNS(N)(=O)=O)CS[C@H]23)ns1 [Ex. 4, (6R,7R)-7-[(Z)-2-(5-amino-1,2,4-thiadiazol-3-yl)-2-(fluoromethoxyimino)acetamido]-3-[5-sulfamidomethylimidazo[5,1-b]thiazolium-6-yl]methyl-3-cephem-4-carboxylate (inner salt)]	≤ 0.025	0.05	≤ 0.025	≤ 0.025	≤ 0.025	0.78	0.39	3.13	6.25	0.78	0.78	0.05	≤ 0.025	0.39	0.05	0.2
CO/N=C(\C(=O)N[C@@H]1C(=O)N2C(C(=O)[O-])=C(C[n+]3cc4sccn4c3CNS(N)(=O)=O)CS[C@H]12)c1nsc(N)n1 [Ex. 5, (6R,7R)-7-[(Z)-2-(5-Amino-1,2,4-thiadiazol-3-yl)-2-(methoxyimino)acetamido]-3-[5-sulfamidomethylimidazo[5,1-b]thiazolium-6-yl]methyl-3-cephem-4-carboxylate (inner salt)]	0.05	0.1	0.05	0.05	0.05	0.78	0.78	3.13	6.25	0.78	0.78	0.1	≤ 0.025	0.39	–	–
CO/N=C(\C(=O)N[C@@H]1C(=O)N2C(C(=O)[O-])=C(C[n+]3ccn4ncccc43)CS[C@H]12)c1nsc(N)n1 [Control 1, Cefozopran, reference compound]	0.05 (≈ 0.097 µM)	0.1 (≈ 0.194 µM)	0.05 (≈ 0.097 µM)	0.1 (≈ 0.194 µM)	0.1 (≈ 0.194 µM)	0.78 (≈ 1.51 µM)	0.78 (≈ 1.51 µM)	12.5 (≈ 24.2 µM)	50 (≈ 97 µM)	0.39 (≈ 0.756 µM)	0.78 (≈ 1.51 µM)	0.1 (≈ 0.194 µM)	0.05 (≈ 0.097 µM)	1.56 (≈ 3.03 µM)	–	–
